Laboratory results published in patent US4304833A, “Photographic products and processes employing triarylmethane compounds” (Polaroid Corporation, priority 1980, dated 1981).

Legend:
Format in all cases: physicochemical
[1] = decolorization of methanol solution added to aqueous 1 N KOH
[2] = transmission densities of image-receiving components before and after bleaching with aqueous 1 N KOH; details: for Transmission density After Bleaching B / Transmission density After Bleaching G / Transmission density After Bleaching R: 1 N KOH
Excerpt: (§1) Using appropriate solvents, samples of the dye compounds prepared in Examples 12, 13, 24, 26 and 39 were incorporated into the image-receiving layer 3 of image-receiving components comprising the structure set forth below by mixing a solution of each compound with a solution of the graft copolymer and coating this mixture on top of the timing layer to complete each of the image-receiving components.
A transparent 4 mil polyethylene terephthalate film base coated with, in succession:
1. as a polymeric acid layer, a mixture of about 9 parts of a partial butyl ester of polyethylene/maleic anhydride copolymer and 1 part of polyvinyl butyral coated at a coverage of about 2,500 mgs./ft.^2 ;
2. a timing layer containing a 14:1 ratio of a 60-30-4-6 tetrapolymer of butylacrylate, diacetone acrylamide, styrene and methacrylic acid and polyvinyl alcohol at a coverage of 500 mgs./ft.^2 ;
3. a graft copolymer of 4-vinylpyridine and vinylbenzyltrimethylammoniumchloride grafted on hydroxyethyl cellulose in a weight ratio of 2.2/1/2.2, respectively, coated at a coverage of 300 mgs./ft.^2 to provide an image-receiving layer and containing the selected dye compound at a coverage of 22 mgs./ft.^2.
Each of the image-receiving components containing the respective dye compounds were placed on a piece of gelatin coated Mylar, and the transmission densities for red (R), green (G) and blue (B) were recorded on a transmission densitometer. Then several drops of aqueous 1 N KOH were added to each gelatin sheet, and the image-receiving components were lightly pressed against the gelatin sheets to "bleach" the dye compounds. […]

[3] = bleaching rate (T 1/2) at pH=12 in buffer, visible spectrometer; details: for Wavelength (λmax-nm): pH=12 buffer; for T 1/2 (pH = 12): pH=12 buffer (aqueous), at λmax given
Procedure: The "bleaching" rates for the compounds of Examples 21, 23, 24, 39 and 41 were determined at pH=12 in terms of T 1/2. By T 1/2 is meant the time measured for one-half of the colored compound to decolorize. In making these determinations, a cell containing about 3 ml of pH=12 buffer (aqueous) was placed in a visible spectrometer. A sample of each compound was dissolved in methanol, and a small amount (less than 0.1 cc) of each solution was injected into the buffer. The optical densities were then recorded at a selected wavelength value to determine T 1/2.

[4] = decolorization of solution with aqueous 1N sodium hydroxide, then acidification; details: for color after decolorization with 1N NaOH and lowering to pH 1: methanol solution, aqueous hydrochloric acid to pH 1
Procedure: Also, samples of the compounds prepared in Examples 24, 26 and 39 above were dissolved in a small amount of methanol, and aqueous 1N sodium hydroxide was added to each solution to decolorize the compound.

[5] = absorption measured in ethanol
Procedure: (c) To a stirred slurry of the phthalol acyl derivative obtained in step b (7.4 g; 0.0155 M), sodium bicarbonate (6.51 g; 0.078 M) and water (200 ml) was added dropwise, a solution of 4.44 g (0.018 M) iodine in 175 ml methylene chloride. After a total of 20 minutes of stirring at room temperature, the aqueous layer was separated and neutralized by adding it to one liter of water containing 15 ml concentrated hydrochloric acid. The aqueous fraction was extracted with methylene, chloride, the organic layer was dried over sodium sulfate and the solvent was removed in vacuo. The dark orange residue was purified via medium pressure column chromatography (silica gel) methanol-methylene chloride; methanol content varied from 0.5-2%). The title compound was isolated as an orange glass. (λmax 424 nm, Epsilon 22,500 as measured in ethanol)

[6] = bleaching of TLC spot treated with 1 N NaOH
Procedure: (c) β-(methylsulfonyl)ethylchloroformate (196 mg) in 8 ml of toluene was added dropwise over 20 minutes to a refluxing solution of 317.3 mg of the compound prepared in step (b) in 15 ml toluene. The yellow mixture was allowed to stir under reflux for an additional hour after addition was complete. The reaction mixture was a deep yellow. […] The yellow spot representing the title compound when treated with 1 N NaOH produced a magenta color which bleached in approximately 5 seconds. The solvent was removed from the remaining reaction mixture under vacuum to give a yellow solid. Preparative TLC with 150 mg of solid in 4 ml tetrahydrofuran using 10% methanol/chloroform gave a yellow band which was separated and washed with acetone to yield approximately 5 mg of the title compound.

[7] = addition of aqueous base (1 N NaOH) to methanol and acetone solutions
Excerpt: The title compound gave yellow solutions in methanol and acetone.

[8] = bleaching of dye in image-receiving layer film with aqueous 1 N NaOH; details: dye in image-receiving layer 3
Excerpt: as §1

[9] = decolorization half-life of acetone solution in pH=12 buffer
Procedure: A sample of an acetone solution of the purified dye compound was added to fresh pH=12 buffer and the first half-life (T 1/2) and the second half-life (T 1/2) were measured giving the following results wherein OD refers to optical density. By T 1/2 is meant the time measured for one-half of said colored compound to decolorize.
The λmax of the pure title compound was 560 nm as measured in acetone--pH 12 buffer, and the T 1/2 values were measured at this wavelength.

[10] = 22 mgs./ft.^2, after 15 to 60 seconds
[11] = 22 mgs./ft.^2, coating stored for over 3 months
[12] = coating stored for over 3 months, bleaching time about 3 minutes
[13] = Experiment 1, pH=12 buffer, 560 nm
[14] = Experiment 2, pH=12 buffer, 560 nm

SMILES: CC(=O)N(C)S(=O)(=O)c1ccccc1C(=C1C=C(C(O)(C(F)(F)F)C(F)(F)F)C(=O)c2ccccc21)c1cc2c3c(c1)CCCN3CCC2 [Example 9]
- decolorization time [1]: approximately 5 seconds

SMILES: COC1=CC(=C(c2ccc(N3CCOCC3)cc2)c2ccccc2S(=O)(=O)N(C)C(=O)OCCS(C)(=O)=O)C=C(OC)C1=O [Example 12]
- Transmission density Before Bleaching B ([2]; 22 mgs./ft.^2): .45
- Transmission density Before Bleaching G ([2]; 22 mgs./ft.^2): .31
- Transmission density Before Bleaching R ([2]; 22 mgs./ft.^2): .00
- Transmission density After Bleaching B [2, 10]: .00
- Transmission density After Bleaching G [2, 10]: .01
- Transmission density After Bleaching R [2, 10]: .02

SMILES: COC1=CC(=C(c2cc3c4c(c2)CCCN4CCC3)c2ccccc2S(=O)(=O)N(C)C(=O)OCCS(C)(=O)=O)C=C(OC)C1=O [Example 13]
- Transmission density Before Bleaching B ([2]; 22 mgs./ft.^2): .09
- Transmission density Before Bleaching G ([2]; 22 mgs./ft.^2): .32
- Transmission density Before Bleaching R ([2]; 22 mgs./ft.^2): .21
- Transmission density After Bleaching B [2, 10]: .00
- Transmission density After Bleaching G [2, 10]: .01
- Transmission density After Bleaching R [2, 10]: .01

SMILES: COC1=CC(=C(c2cc(OC)c(O)c(OC)c2)c2ccccc2S(=O)(=O)N(C)C(=O)OCCS(C)(=O)=O)C=C(OC)C1=O [Example 21]
- Wavelength (λmax-nm) [3]: 640 nm
- T 1/2 (pH = 12) [3]: 2 sec.

SMILES: COC1=CC(=C(c2cc(OC)c(O)c(OC)c2)c2ccccc2S(=O)(=O)N(C)C(C)=O)C=C(OC)C1=O [Example 23]
- Wavelength (λmax-nm) [3]: 640 nm
- T 1/2 (pH = 12) [3]: 158 sec.

SMILES: CC1=CC(=C(c2cc(C)c(O)c(C)c2)c2ccccc2S(=O)(=O)N(C)C(=O)OCCS(C)(=O)=O)C=C(C)C1=O [Example 24]
- Transmission density Before Bleaching B ([2]; 22 mgs./ft.^2): .40
- Transmission density Before Bleaching G ([2]; 22 mgs./ft.^2): .00
- Transmission density Before Bleaching R ([2]; 22 mgs./ft.^2): .00
- Transmission density After Bleaching B [2, 10]: .00
- Transmission density After Bleaching G [2, 10]: .00
- Transmission density After Bleaching R [2, 10]: .01
- color after decolorization with 1N NaOH and lowering to pH 1 [4]: remained colorless even at pH 1
- Wavelength (λmax-nm) [3]: 590 nm
- T 1/2 (pH = 12) [3]: 2 sec.

SMILES: CN(C(=O)OCCS(C)(=O)=O)S(=O)(=O)c1ccccc1C(=C1C=C(C(O)(C(F)(F)F)C(F)(F)F)C(=O)c2ccccc21)c1cc2c3c(c1)CCCN3CCC2 [Example 26]
- Transmission density Before Bleaching B [2, 11]: .05
- Transmission density Before Bleaching G [2, 11]: .06
- Transmission density Before Bleaching R [2, 11]: .19
- Transmission density After Bleaching B [2, 12]: .02
- Transmission density After Bleaching G [2, 12]: .00
- Transmission density After Bleaching R [2, 12]: .02
- color after decolorization with 1N NaOH and lowering to pH 1 [4]: remained colorless even at pH 1
- decolorization (in words) [1]: decolorized substantially instantaneously

SMILES: COCC(=O)OCc1ccccc1C(=C1C=C(OC)C(=O)C(OC)=C1)c1cc(OC)c(O)c(OC)c1 [Example 39]
- Transmission density Before Bleaching B ([2]; 22 mgs./ft.^2): .59
- Transmission density Before Bleaching G ([2]; 22 mgs./ft.^2): .03
- Transmission density Before Bleaching R ([2]; 22 mgs./ft.^2): .01
- Transmission density After Bleaching B [2, 10]: .01
- Transmission density After Bleaching G [2, 10]: .00
- Transmission density After Bleaching R [2, 10]: .00
- color after decolorization with 1N NaOH and lowering to pH 1 [4]: remained colorless even at pH 1
- Wavelength (λmax-nm) [3]: 640 nm
- T 1/2 (pH = 12) [3]: 44 sec.

SMILES: COC1=CC(=C(c2cc(OC)c(O)c(OC)c2)c2ccccc2COC(=O)COc2ccccc2)C=C(OC)C1=O [Example 41]
- Wavelength (λmax-nm) [3]: 640 nm
- T 1/2 (pH = 12) [3]: 18 sec.

SMILES: CC1=CC(=C(c2cc(C)c(O)c(C)c2)c2ccccc2COC(=O)COCC(=O)O)C=C(C)C1=O [Example 42]
- λmax [5]: 424 nm
- Epsilon ([5]; at λmax, in M-1 cm-1 (unit assumed)): 22,500

SMILES: CN(Cc1ccccc1C(=C1C=CC(=O)C=C1)c1ccc(O)cc1)C(=O)OCCS(C)(=O)=O [Example 44]
- color after acidifying and again treating with aqueous 1N NaOH ([4]; after bleaching in 1N NaOH): remained colorless
- time to complete bleaching ([4]; aqueous 1N NaOH): ≤ 5 s
- time to bleach of magenta color [6]: approximately 5 seconds

SMILES: CN(C(=O)OCCS(C)(=O)=O)C(=O)c1ccccc1C(=C1C=CC(=O)C=C1)c1ccc(O)cc1 [Example 45]
- bleaching on addition of aqueous base [7]: rapidly and irreversibly bleached to colorless
- bleaching of film with aqueous 1 N NaOH [8]: quickly bleached
- 1st T 1/2 [9, 13]: 10.0 s
- 2nd T 1/2 [9, 13]: 8.5 s
- Final OD [9, 13]: 0.02
- OD at 1.5 sec. [9, 13]: 2.00
- 1st T 1/2 [9, 14]: 9.5 s
- 2nd T 1/2 [9, 14]: 8.5 s
- Final OD [9, 14]: 0.01
- Initial OD (extrapolated) [9, 14]: 1.15
- OD at 3.0 sec. [9, 14]: 0.90
- λmax ([9]; acetone--pH 12 buffer): 560 nm
